Test results taken from PubChem BioAssay (NCI).
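Interpolation was linear, between the two tested concentrations surrounding the appropriate level; five concentrations were tested over 48 hours in 96-well plates. GI50 = concentration required for 50% inhibition of growth. TGI: total growth inhibition.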

Experiments:
Test in all cases: inhibition of tumour cell growth, NCI panel, 48 h
HCT-116 colon = tested on: HCT-116 colon
CAKI-1 renal = tested on: CAKI-1 renal
786-0 renal = tested on: 786-0 renal
NCI/ADR-RES ovarian = tested on: NCI/ADR-RES ovarian
OVCAR-8 ovarian = tested on: OVCAR-8 ovarian
RXF 393 renal = tested on: RXF 393 renal
HT29 colon = tested on: HT29 colon
K-562 leukemia = tested on: K-562 leukemia
TK-10 renal = tested on: TK-10 renal
SF-268 CNS = tested on: SF-268 CNS
SF-539 CNS = tested on: SF-539 CNS
NCI-H23 lung = tested on: NCI-H23 lung
SNB-19 CNS = tested on: SNB-19 CNS
M14 melanoma = tested on: M14 melanoma
HOP-92 NSCLC = tested on: HOP-92 NSCLC
RPMI-8226 leukemia = tested on: RPMI-8226 leukemia
SN12C renal = tested on: SN12C renal
MALME-3M melanoma = tested on: MALME-3M melanoma
COLO 205 colon = tested on: COLO 205 colon
A549 NSCLC = tested on: A549 NSCLC
HCT-15 colon = tested on: HCT-15 colon
HOP-62 NSCLC = tested on: HOP-62 NSCLC
HCC-2998 colon = tested on: HCC-2998 colon
ACHN renal = tested on: ACHN renal
MDA-MB-435 = tested on: MDA-MB-435
SF-295 CNS = tested on: SF-295 CNS
UACC-257 melanoma = tested on: UACC-257 melanoma
CCRF-CEM leukemia = tested on: CCRF-CEM leukemia

O=C1Nc2ccc(Cl)cc2/C1=C/c1cccc(OCc2ccccn2)c1
TGI (HCT-116 colon): 27.2 µM | GI50 (CAKI-1 renal): 15.3 µM | TGI (CAKI-1 renal): 32 µM | GI50 (786-0 renal): 16.4 µM | TGI (786-0 renal): 31.1 µM | GI50 (NCI/ADR-RES ovarian): 14.2 µM | TGI (NCI/ADR-RES ovarian): 34 µM | GI50 (OVCAR-8 ovarian): 15.4 µM | TGI (OVCAR-8 ovarian): 30.3 µM | GI50 (RXF 393 renal): 11.9 µM | TGI (RXF 393 renal): 24.5 µM | GI50 (HT29 colon): 17.4 µM | TGI (HT29 colon): 32.8 µM | GI50 (K-562 leukemia): 19 µM | TGI (K-562 leukemia): > 100 µM | GI50 (TK-10 renal): 18.7 µM | TGI (TK-10 renal): 33.5 µM | GI50 (SF-268 CNS): 17.6 µM | TGI (SF-268 CNS): 38.9 µM | GI50 (SF-539 CNS): 16 µM | TGI (SF-539 CNS): 29.5 µM | GI50 (NCI-H23 lung): 14.5 µM | TGI (NCI-H23 lung): 28.1 µM | GI50 (SNB-19 CNS): 15.7 µM | TGI (SNB-19 CNS): 29.3 µM | GI50 (M14 melanoma): 16.3 µM | TGI (M14 melanoma): 31.2 µM | GI50 (HOP-92 NSCLC): 14.7 µM | TGI (HOP-92 NSCLC): 46.2 µM | GI50 (RPMI-8226 leukemia): 20 µM | TGI (RPMI-8226 leukemia): > 100 µM | GI50 (SN12C renal): 15.3 µM | TGI (SN12C renal): 28.9 µM | GI50 (MALME-3M melanoma): 15.4 µM | TGI (MALME-3M melanoma): 29 µM | GI50 (COLO 205 colon): 17.5 µM | TGI (COLO 205 colon): 33 µM | GI50 (A549 NSCLC): 17.8 µM | TGI (A549 NSCLC): 38.2 µM | GI50 (HCT-15 colon): 13.7 µM | TGI (HCT-15 colon): 30.3 µM | GI50 (HOP-62 NSCLC): 15.8 µM | TGI (HOP-62 NSCLC): 31.3 µM | GI50 (HCC-2998 colon): 17.8 µM | TGI (HCC-2998 colon): 31.9 µM | GI50 (ACHN renal): 15 µM | TGI (ACHN renal): 30 µM | GI50 (MDA-MB-435): 18.4 µM | TGI (MDA-MB-435): 36 µM | GI50 (SF-295 CNS): 15.5 µM | TGI (SF-295 CNS): 29.1 µM | GI50 (UACC-257 melanoma): 15.2 µM | TGI (UACC-257 melanoma): 28.7 µM | GI50 (CCRF-CEM leukemia): 30.6 µM | TGI (CCRF-CEM leukemia): > 100 µM
